{"source": "patent US11641856B2", "about": "(SMITH & NEPHEW, INC., priority 2015, dated 2023)", "data": [{"test_system": "S. aureus biofilm", "assay": "In-vitro S. aureus biofilm model, treatment with oils of various polarity", "format": "cell-based", "details": "oils with log P within vs outside 0.5 to 2.0", "values": [{"compound": "O=C(O)c1ccccc1", "note": "[Benzoic Acid]", "antibacterial activity against biofilms (log reduction of bacteria vs. moist control, FIG. 1)": "exhibited some antibacterial activity against biofilms"}, {"compound": "OCc1ccccc1", "note": "[Benzyl Alcohol]", "antibacterial activity against biofilms (log reduction of bacteria vs. moist control, FIG. 1)": "exhibited some antibacterial activity against biofilms"}, {"compound": "CCOC(C)=O", "note": "[Ethyl Acetate]", "antibacterial activity against biofilms (log reduction of bacteria vs. moist control, FIG. 1)": "exhibited some antibacterial activity against biofilms"}, {"compound": "CCOC(=O)c1cc(O)c(O)c(O)c1", "note": "[Ethyl Gallate]", "antibacterial activity against biofilms (log reduction of bacteria vs. moist control, FIG. 1)": "exhibited some antibacterial activity against biofilms"}, {"compound": "CCCCCCCCCCCC(=O)OCC(O)CO", "note": "(centres unmarked) [MONOMULS®, glyceryl monolaurate]", "antibacterial activity against biofilms (log reduction of bacteria vs. moist control, FIG. 1)": "did not exhibit very much antimicrobial activity against biofilms"}, {"compound": "CCCOC(=O)c1cc(O)c(O)c(O)c1", "note": "[Propyl Gallate]", "antibacterial activity against biofilms (log reduction of bacteria vs. moist control, FIG. 1)": "exhibited some antibacterial activity against biofilms"}, {"compound": "Oc1cccc(O)c1", "note": "[Resorcinol]", "antibacterial activity against biofilms (log reduction of bacteria vs. moist control, FIG. 1)": "exhibited some antibacterial activity against biofilms"}, {"compound": "CC(=O)OCC(COC(C)=O)OC(C)=O", "note": "[glyceryl triacetate]", "antibacterial activity against biofilms (log reduction of bacteria vs. moist control, FIG. 1)": "did not exhibit very much antimicrobial activity against biofilms"}, {"compound": "CCCCCCCCCCCCCC(=O)OC(C)C", "note": "[isopropyl myristate]", "antibacterial activity against biofilms (log reduction of bacteria vs. moist control, FIG. 1)": "did not exhibit very much antimicrobial activity against biofilms"}, {"compound": "COC(=O)c1ccccc1", "note": "[methyl benzoate]", "antibacterial activity against biofilms (log reduction of bacteria vs. moist control, FIG. 1)": "did not exhibit very much antimicrobial activity against biofilms"}, {"compound": "CCCCCCCC/C=C\\CCCCCCCC(=O)O", "note": "[oleic acid]", "antibacterial activity against biofilms (log reduction of bacteria vs. moist control, FIG. 1)": "did not exhibit very much antimicrobial activity against biofilms"}, {"compound": "diethyl acetate", "antibacterial activity against biofilms (log reduction of bacteria vs. moist control, FIG. 1)": "did not exhibit very much antimicrobial activity against biofilms"}]}, {"test_system": "not given", "assay": "not given", "details": "reference standards with known log P values used for HPLC calibration; cited from earlier work", "values": [{"compound": "O=C(C=Cc1ccccc1)OCc1ccccc1", "note": "[Benzyl cinnamate]", "log P": 4.06}, {"compound": "CCCCOC(=O)CCCCCCCCC(=O)OCCCC", "note": "[Dibutyl sebacate]", "log P": 6.3}]}]}
